Ends that are not written are not given here. Peptide text beside a SMILES is read from it. * marks the point of attachment. FITC = O=C1OC2(c3ccc(O)cc3Oc3cc(O)ccc32)c2ccc(NC(=S)*)cc21 Bounds are passed on as bounds.

The source of these data is PMC7066135, “The lipoprotein Pal stabilises the bacterial outer membrane during constriction by a mobilisation-and-capture mechanism” (Nature Communications, 2020).

For experiment [1], the system named is Pal-mCherry in E. coli cells. Briefly: Fluorescence recovery after photobleaching (FRAP) of Pal-mCherry. Format: cell-based. Particulars: non-dividing cells, average from 30 cells. As for the experimental part: Overnight supplemented M9-glucose (2 mM MgSO4, 0.1 mM CaCl2, 0.4% (w/v) D-glucose) cultures were diluted in fresh medium with appropriate antibiotics and IPTG for strains expressing TolA from plasmids. Cultures were grown at 37 °C to OD600 0.3. Cells were centrifuged at 7000 × g for 1 min, resuspended in 1 ml of fresh media and treated with CCCP (0.1 mM, RT for 5 min, Sigma #C2759) for PMF decoupling, sodium azide (50 µg ml^−1, RT for 30 min, Sigma #S2002) for ATPase inhibition or chloramphenicol (30 µg ml^−1, 37 °C for 30 min, Sigma #C0378) for translation inhibition. […]
Microscopy was performed on a Zeiss LSM 880/Axio Examiner Z1 motorised upright laser scanning microscope equipped with Argon multiline 458/488/514 nm (25 mW), and HeNe 561 nm (1 mW) and ×63 oil-immersion objective (Zeiss, NA 1.4) set to 37 °C. […] Two images were acquired before bleaching and ten images, with a time interval of 1 min, recorded after bleaching using an automatic time-course function. […] For all fluorescent images, corresponding differential interference contrast (DIC) images were recorded using transmitted light. All images were recorded using Zeiss Zen 2011 software.
All images were analysed using ImageJ software. Fluorescence distribution along x-axis of cells was determined by the plot profile function with a line width of 4 points for TIRFM images and 40 or 80 for FRAP images. […]

Experiment [2] has as its target T1, C-terminal domain of wild-type TolA (Pseudomonas aeruginosa, UniProt P50600).
T1 construct: The C-terminal domain of Pseudomonas aeruginosa TolA (TolA^224–347) and its derivatives; His-tagged Im9 (fusion partner, factor Xa site) (N, cleaved yes); made in house; host or cells: E. coli BL21 (DE3)
Briefly: Stopped-flow fluorescence anisotropy, wild-type TolA. The class given is binding, P. aeruginosa. As for the experimental part:
(§1) Experiments were conducted on an Applied Photophysics SX20 instrument set up for 1:1 single mixing and thermostated using a circulating water bath at 25 °C. All stopped-flow experiments were carried out in 50 mM Tris pH 7.0, 100 mM NaCl and under pseudo-first-order conditions. […] Monochromator entrance and exit slits were set to 2 mm. A total of 4000–10,000 data points were collected for each reaction. At least four anisotropy traces were collected for each reaction and averaged for each time-dependence fit. All anisotropy traces were fit to a single exponential rate equation. Each reaction concentration was collected in triplicate and validated using recombinant protein from different protein purifications. SigmaPlot was used for linear regression analysis to fit the dependence of kobs on the varied concentration of TolA. Titrations were performed at increasing concentration of protein relative to a constant concentration of peptide at 1 μM. Experiments were typically performed with 4–10-s data collection periods.
(§2) of mutations in vitro and in vivo. All in vitro measurements used the P. aeruginosa complex while all in vivo assays
(§3) binding a 100-fold excess of the C-terminal domain of wild-type TolA (red) and TolA with its C-terminal α-helix removed
(§4) tion yielding an observed rate (kobs). […]
(In general: Fluorescence polarisation rises when a labelled molecule tumbles more slowly, as on binding a larger partner.)

Experiment [3] concerns the target T2, TolA224-344 lacking its short C-terminal α-helix (Pseudomonas aeruginosa, UniProt P50600).
T2 construct: Open symbols, TolA224-344 lacking its short; His-tagged Im9 (fusion partner, factor Xa site) (N); made in house; host or cells: E. coli BL21 (DE3)
The experiment is described as follows: Fluorescence anisotropy titration, FITC-labelled TolB peptide, helix-truncated TolA. Format: binding, P. aeruginosa. As to conditions: versus wild-type TolA224-347. The procedure:
Fluorescence anisotropy experiments were used to observe the change in overall anisotropy of P. aeruginosa TolB^22–34 fluorescein isothiocyanate (FITC) in complex with the C-terminal domain of TolA. A titration curve was recorded using 40 μl fractions in a 96-well, black absorbent, 100 μl plate, n = 3.
Experiments were carried out using either a CLARIOstar plate reader or a Fluoromax- 4 spectrofluorimeter (Horiba JobinYvon). Titrations were carried out between 0 and 1.2 mM TolA. […] FITC excitation wavelength used was 495 nm with an emission wavelength at 519 nm. All experiments were conducted in 50 mM Tris 100 mM NaCl pH 7.0 and used light-blocking tubes to minimize quenching.
(§5) Data were fitted using the manufac-turer ’s software assuming a 1:1 binding model, validated by the resulting structure for the complex. From three independent measurements, average values for ΔH […] (±0.24 standard deviation (SD)) kcal.mol-1, ΔS +11.8 (±2.14 SD) cal.K-1 […]
(§6) form of an isolated peptide. b, Binding of TolB22-34 to the C-terminal domain of 15N-labelled TolA224-347 from P. aeruginosa followed by changes in 1H, 15N-HSQC spectra, >80% of all TolA peaks were perturbed by TolB22-33 binding. Every peak was […]
(§7) and free (32%) TolA. […]
(§8) five-fold weaker binding than the E. coli complex. c, Fluorescence anisotropy binding curves for P. aeruginosa TolB22-33 binding the C-terminal domain of TolA. […]

The target in experiment [4] is T3, TolA with its C-terminal α-helix removed (Pseudomonas aeruginosa, UniProt P50600).
T3 construct: Open symbols, TolA224-344 lacking its short; His-tagged Im9 (fusion partner, factor Xa site) (N); made in house; host or cells: E. coli BL21 (DE3)
Briefly: Stopped-flow fluorescence anisotropy, helix-truncated TolA. The class given is binding, P. aeruginosa. As for the experimental part:
as §1, §2, §3, §4

The target in a further experiment is T4, TolA224-347 (Pseudomonas aeruginosa, UniProt P50600).
T4 construct: The C-terminal domain of Pseudomonas aeruginosa TolA (TolA^224–347) and its derivatives; His-tagged Im9 (fusion partner, factor Xa site) (N, cleaved yes); made in house; host or cells: E. coli BL21 (DE3)
The experiment is described as follows: NMR titration (1H,15N-HSQC), TolB peptide binding 15N-labelled TolA. Particulars: 1H,15N-HSQC spectra; slow chemical exchange. Also noted: species or system P. aeruginosa. The procedure: NMR experiments were carried out using spectrometers operating at ^1H frequencies ranging from 500 to 950 MHz. The spectrometers were equipped with Oxford Instruments magnets and home-built triple-resonance pulsed-field gradient probes (600, 750 and 950 MHz) or with Bruker Avance consoles and TCI CryoProbes (500 and 600 MHz). NMR data were acquired using either GE/Omega software using pulse sequences written in-house, or Topspin software and pulse sequences in the Topspin libraries from Bruker Biospin. All data processing was conducted using NMRPipe[49]. Processed spectra were visualized and assigned using the CCPN software suite. All NMR data were collected at 20 °C.
as §5, §6, §7, §8

The target in experiment [5] is E. coli TolB22-33 peptide. Briefly: ITC. (In general: ITC needs no label: the signal is the heat of the interaction.)
The target in experiment [6] is P. aeruginosa TolB^22–34 fluorescein isothiocyanate (FITC) (P. aeruginosa) (UniProt P50601). Briefly: FP.
For another experiment, the target named is TolA (Escherichia coli) (UniProt P19934). As to conditions: cited from earlier work.
A further experiment concerns the target Pal (Escherichia coli) (UniProt P0A912). Particulars: cited from earlier work.
The next experiment concerns TolA-GFP at the divisome. Briefly: 3D-SIM of TolA-GFP recruitment to the divisome. Format: cell-based, E. coli. Particulars: TolB I25A, I27A background versus wild-type TolB, expressed from plasmid; n = 30; Mann-Whitney U and t test. The text has this:
Live bacteria were mounted between an agarose pad and a coverslip. Imaging was processed at room temperature with a ×60, NA 1.42 oil objective on a Deltavision OMX V3 Blaze (GE) equipped with a 488 laser. Image stacks of several μm thickness were taken with 0.125 μm z-steps and 15 images (three angles and five phases per angle) per z-section and a 3D-structured illumination with stripe separation of 213 nm. Laser power was set at 10% to scan the sample over 4 µm thickness (32 slices) without too much photobleaching. Image stacks were reconstructed using Deltavision softWoRx 6.1.1 software with a Wiener filter of 0.002 using wavelength-specific experimentally determined OTF functions (see ref. [37]). […] Distribution of fluorescence intensity along the x-axis of bacteria was determined using a custom script implemented in MATLAB (version 2012a, MathWorks) (see ref. [40]). […] Intensity along the selected bacteria was measured 11 times between the bacterial end-points, each at a uniformly spaced offset from the bacterial long axis. The mean profile was calculated and normalized to the range 0–100 for comparison between bacteria. Diameter measurements correspond to the height of ring, calculated automatically through ImageJ software from each reconstructed and filtered image. A total of 30 cells were analysed per condition, in triplicate. […]

Experiment [7] addresses T5, C-terminal domain of Pseudomonas aeruginosa TolA (TolA^224–347) (Pseudomonas aeruginosa, UniProt P50600 224-347).
T5 chain: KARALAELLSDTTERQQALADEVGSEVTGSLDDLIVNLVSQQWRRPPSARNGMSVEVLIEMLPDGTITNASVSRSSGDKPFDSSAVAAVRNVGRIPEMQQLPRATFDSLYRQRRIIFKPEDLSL
The experiment is described as follows: NMR.

For experiment [8], the target named is T5, C-terminal domain of Pseudomonas …. The experiment is described as follows: FP.

Sequence of TolB (P0A855 22-430): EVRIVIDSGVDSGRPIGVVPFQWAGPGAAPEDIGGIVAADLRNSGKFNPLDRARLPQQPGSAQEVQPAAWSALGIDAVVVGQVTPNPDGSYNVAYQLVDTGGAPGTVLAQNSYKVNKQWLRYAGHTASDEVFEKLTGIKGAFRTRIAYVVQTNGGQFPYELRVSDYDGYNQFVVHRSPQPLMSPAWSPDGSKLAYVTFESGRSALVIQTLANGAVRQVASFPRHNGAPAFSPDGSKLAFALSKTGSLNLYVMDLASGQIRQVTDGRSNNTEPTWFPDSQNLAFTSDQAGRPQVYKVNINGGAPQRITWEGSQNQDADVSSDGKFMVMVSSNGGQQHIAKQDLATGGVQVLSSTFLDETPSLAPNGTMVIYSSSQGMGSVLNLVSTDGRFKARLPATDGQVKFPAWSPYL
Sequence of TolA (Escherichia coli) (P19934 whole entry): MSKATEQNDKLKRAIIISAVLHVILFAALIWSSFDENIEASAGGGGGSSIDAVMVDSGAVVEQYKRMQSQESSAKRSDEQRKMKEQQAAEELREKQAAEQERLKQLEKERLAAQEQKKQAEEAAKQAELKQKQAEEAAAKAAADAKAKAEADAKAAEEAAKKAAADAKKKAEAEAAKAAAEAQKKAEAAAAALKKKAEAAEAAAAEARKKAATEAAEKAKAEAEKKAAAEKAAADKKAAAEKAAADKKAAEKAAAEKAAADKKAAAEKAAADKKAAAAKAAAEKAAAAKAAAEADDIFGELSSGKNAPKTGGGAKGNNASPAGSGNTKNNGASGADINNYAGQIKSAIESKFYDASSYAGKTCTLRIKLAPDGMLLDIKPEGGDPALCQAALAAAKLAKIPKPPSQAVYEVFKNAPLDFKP
Sequence of Pal (Escherichia coli) (P0A912 22-173): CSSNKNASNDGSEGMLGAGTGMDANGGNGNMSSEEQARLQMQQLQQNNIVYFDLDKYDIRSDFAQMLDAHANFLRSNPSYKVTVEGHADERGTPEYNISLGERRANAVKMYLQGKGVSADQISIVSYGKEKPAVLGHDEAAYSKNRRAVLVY

Consider `N#CC(C#N)=NNc1cccc(Cl)c1` [CCCP], for which, in [1] (CCCP 0.1 mM), the “effect on FRAP recovery” value is “measurable effect”.

The term koff denotes the first-order rate constant of dissociation. Read a low koff as a long-lived complex. Turning to `CC[C@H](C)[C@H](NC(=O)[C@@H](NC(=O)[C@H](CC(C)C)NC(=O)[C@@H]1CCCN1C(=O)[C@H](CC(=O)O)NC(=O)[C@H](C)N)C(C)C)C(=O)N[C@@H](CO)C(=O)N[C@@H](CO)C(=O)NCC(=O)N[C@@H](CC(N)=O)C(=O)N[C@@H](CC(=O)O)C(=O)N[C@@H](CCCNC(=N)N)C(=O)N[C@@H](CCCCNC(=S)Nc1ccc2c(c1)C(=O)OC21c2ccc(O)cc2Oc2cc(O)ccc21)C(N)=O` [P. aeruginosa TolB22-33] (H-ADPLVISSGNDRK(FITC)-NH2; N-terminus and C-terminus assumed), the koff in [2] came to 0.9 s⁻¹; in [4], 1.4 s⁻¹. Moreover, the “improvement of TolB binding on deletion of the TolA helix” value in experiment [3] is on record as “three-fold”. Also, the “kon relative to wild-type complex” value in [4] (helix truncation versus wild-type TolA) is recorded as “three-fold faster”.

Regarding `[N-]=[N+]=[N-].[Na+]` [sodium azide], the “effect on FRAP recovery” value in [1] (sodium azide 50 µg/µl) is “measurable effect”.

As to ADPLVISSGNDRA-NH2 [TolB22-34], the “TolA peaks perturbed by TolB peptide binding” value at TolA224-347 is given as more than 80%.

The Kd is the concentration at which binding is half-saturated. In the case of E. coli TolA C-terminal domain, the Kd in [5] is 42 µM.

In turn, “TolA224-344 (P. aeruginosa, lacking C-terminal α-helix)” gave a Kd in experiment [6] of 86 µM.

Consider TolB (from UniProt P0A855), for which the Kd is 40 µM in the experiment with TolA (Escherichia coli) and 0.03 µM with Pal (Escherichia coli).

As for TolB I25A, I27A, the “divisome recruitment of TolA-GFP (intensity distribution, ring diameter)” value in the experiment with TolA-GFP at the divisome was “no significant difference”.

In experiment [7], ADPLVISSGNDRA-NH2 [P. aeruginosa TolB^22–34 peptide (the N-terminus of secreted TolB; the TolA box)] returned a Kd of 220 µM.

As to ADPLVISSGNDRAK(FITC) [P. aeruginosa TolB^22–34 fluorescein isothiocyanate (FITC)], the Kd in experiment [8] came to 250 µM.
